Results published in the supplement of paper PMC10307832.

Columns and labels:
Experiment in all cases: relative viability (nuclei count vs DMSO), 5 days (fraction); higher = more cells survive
IU1-47 + Dasatinib = compound: CC1=CC(=C(N1C2=CC=C(C=C2)Cl)C)C(=O)CN3CCCCC3 [IU1-47] + Cc1nc(Nc2ncc(C(=O)Nc3c(C)cccc3Cl)s2)cc(N2CCN(CCO)CC2)n1 [Dasatinib] (partner 0.075 µM)
Summary of the method: (§1)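 Each reported value is a median over duplicate plates. It expresses relative viability: treated-well nuclei count divided by vehicle-well nuclei count. Lung cancer cell lines in 1536-well plates were dosed by pin tool a day after seeding, alone with one drug or with a fixed anchor-drug dose plus five library-drug doses (not always all listed) in √10 steps, and nuclei were counted after 5 days.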

FG-4592 + Bortezomib = compound: Cc1nc(C(=O)NCC(=O)O)c(O)c2ccc(Oc3ccccc3)cc12 [FG-4592] + CC(C)C[C@H](NC(=O)[C@H](Cc1ccccc1)NC(=O)c1cnccn1)B(O)O [Bortezomib] (partner 0.002 µM)
Summary of the method: as §1

FG-4592 + Tozasertib = compound: Cc1nc(C(=O)NCC(=O)O)c(O)c2ccc(Oc3ccccc3)cc12 [FG-4592] + Cc1cc(Nc2cc(N3CCN(C)CC3)nc(Sc3ccc(NC(=O)C4CC4)cc3)n2)n[nH]1 [Tozasertib] (partner 0.1 µM)
Summary of the method: as §1

FG-4592 + Pemetrexed = compound: Cc1nc(C(=O)NCC(=O)O)c(O)c2ccc(Oc3ccccc3)cc12 [FG-4592] + Nc1nc2[nH]cc(CCc3ccc(C(=O)N[C@@H](CCC(=O)O)C(=O)O)cc3)c2c(=O)[nH]1 [Pemetrexed] (partner 0.2 µM)
Summary of the method: as §1

Cell Line	relative viability (IU1-47 + Dasatinib; first compound 0.08 µM)	relative viability (IU1-47 + Dasatinib; first compound 0.253 µM)	relative viability (IU1-47 + Dasatinib; first compound 0.8 µM)	relative viability (IU1-47 + Dasatinib; first compound 8 µM)	relative viability (FG-4592 + Bortezomib; first compound 0.08 µM)	relative viability (FG-4592 + Bortezomib; first compound 0.253 µM)	relative viability (FG-4592 + Bortezomib; first compound 0.8 µM)	relative viability (FG-4592 + Bortezomib; first compound 2.53 µM)	relative viability (FG-4592 + Bortezomib; first compound 8 µM)	relative viability (FG-4592 + Tozasertib; first compound 0.08 µM)	relative viability (FG-4592 + Tozasertib; first compound 0.253 µM)	relative viability (FG-4592 + Tozasertib; first compound 0.8 µM)	relative viability (FG-4592 + Tozasertib; first compound 2.53 µM)	relative viability (FG-4592 + Tozasertib; first compound 8 µM)	relative viability (FG-4592 + Pemetrexed; first compound 0.08 µM)	relative viability (FG-4592 + Pemetrexed; first compound 0.253 µM)	relative viability (FG-4592 + Pemetrexed; first compound 0.8 µM)	relative viability (FG-4592 + Pemetrexed; first compound 2.53 µM)	relative viability (FG-4592 + Pemetrexed; first compound 8 µM)	relative viability (IU1-47 + Dasatinib; first compound 2.53 µM)
201T	0.542	0.604	0.622	0.587	1.11	1.12	1.04	1.1	1.08	0.856	0.965	1.06	0.998	0.946	0.355	0.331	0.305	0.29	0.308	
A-427	0.851	0.656	0.728	0.642	0.925	0.979	0.983	0.946	0.954	0.21	0.223	0.201	0.206	0.224	0.874	0.96	0.895	0.986	0.902	
ABC-1	0.696	0.603	0.615	0.542	0.365		0.308	0.359	0.22	0.177	0.178	0.148	0.187	0.149						
BEN	0.296	0.358	0.394	0.304	0.608	0.733	0.701	0.825	0.546	0.564	0.459	0.475	0.676	0.452	0.548	0.649	0.592	0.822	0.726	
CAL-12T	0.413	0.388	0.436	0.344	1.05	1.07	0.601	1.15	0.902	0.335	0.267	0.312	0.293	0.29	1.21	1.3	1.3	0.974	1.04	0.263
COR-L23	0.517	0.504	0.585	0.551	1.03	0.874	1.26	0.888	0.889	0.186	0.212	0.217	0.153	0.171	0.205	0.204	0.171	0.194	0.187	0.537
COR-L 105	0.307	0.303	0.332	0.307	0.75	0.725	0.796	0.807	0.674	0.348	0.375	0.359	0.297	0.35	1.03	0.92	1.13	1.14	0.877	0.248
Calu-6					0.98	0.854	0.938	1.1	0.926											
ChaGo-K-1	0.524	0.557	0.707	0.544	1.04	0.873	0.726	1.11	0.533	0.241	0.219	0.224	0.237	0.208	0.266	0.258	0.26	0.26	0.274	0.643
EBC-1					0.63	0.531	0.57	0.546	0.688											
EKVX	0.564	0.577	0.691	0.389	1.1	0.94	1.06	1.17	0.885	0.397	0.403	0.47	0.412	0.387	0.346	0.36	0.376	0.377	0.515	0.34
EMC-BAC-2	0.373	0.336	0.356	0.326	1.04	1.04	0.934	1.02	1	0.262	0.277	0.27	0.301	0.286	0.407	0.407	0.447	0.434	0.423	0.324
EPLC-272H	0.371	0.459	0.322	0.35	0.897	0.712	0.7	0.979	0.799	0.24	0.286	0.204	0.378	0.271	0.321	0.223	0.319	0.353	0.377	
H3255	0.371	0.491	0.385	0.387	0.816	0.606	0.752	0.744	0.906	0.718	0.626	0.608	0.601	0.642	0.586	0.538	0.567	0.573	0.56	0.366
HARA	0.273	0.184	0.325	0.276	1.03	1.01		1.08	1.11	0.12	0.138	0.0931	0.115	0.104				0.251	0.24	
HCC-15	0.687	0.749	0.685	0.519	1.01	0.913	1.07	1.07	0.999	0.333	0.42	0.395	0.391	0.444	0.21	0.235	0.22	0.221	0.232	0.564
HCC-44					0.817	0.894	0.946	0.921	0.889	1.08	0.84		0.783	0.852	0.615	0.652	0.705	0.688	0.725	
HCC-78	0.378	0.389	0.324	0.336	0.558	0.51	0.406	0.453	0.371	0.402	0.481	0.491	0.486	0.414	0.941		0.901	0.871	0.909	0.373

Cell Line	relative viability (IU1-47 + Dasatinib; first compound 0.08 µM)	relative viability (IU1-47 + Dasatinib; first compound 0.253 µM)	relative viability (IU1-47 + Dasatinib; first compound 0.8 µM)	relative viability (IU1-47 + Dasatinib; first compound 8 µM)	relative viability (FG-4592 + Bortezomib; first compound 0.08 µM)	relative viability (FG-4592 + Bortezomib; first compound 0.253 µM)	relative viability (FG-4592 + Bortezomib; first compound 0.8 µM)	relative viability (FG-4592 + Bortezomib; first compound 2.53 µM)	relative viability (FG-4592 + Bortezomib; first compound 8 µM)	relative viability (FG-4592 + Tozasertib; first compound 0.08 µM)	relative viability (FG-4592 + Tozasertib; first compound 0.253 µM)	relative viability (FG-4592 + Tozasertib; first compound 0.8 µM)	relative viability (FG-4592 + Tozasertib; first compound 2.53 µM)	relative viability (FG-4592 + Tozasertib; first compound 8 µM)	relative viability (FG-4592 + Pemetrexed; first compound 0.08 µM)	relative viability (FG-4592 + Pemetrexed; first compound 0.253 µM)	relative viability (FG-4592 + Pemetrexed; first compound 0.8 µM)	relative viability (FG-4592 + Pemetrexed; first compound 2.53 µM)	relative viability (FG-4592 + Pemetrexed; first compound 8 µM)	relative viability (IU1-47 + Dasatinib; first compound 2.53 µM)
IA-LM					0.914	0.75	0.814	0.653	0.405											
LK-2	0.221	0.185	0.264	0.28						0.155	0.17		0.175	0.186	0.26	0.277		0.239	0.268	0.24
NCI-H358	0.147	0.142	0.156	0.211						0.106	0.111	0.115	0.113	0.091	0.169	0.165	0.164	0.176	0.179	0.168
NCI-H522	0.807	0.872	0.748	0.907						0.493	0.625	0.545	0.539	0.437	1.11	0.878		0.728	0.869	0.759
NCI-H727	0.396	0.398	0.362	0.442	0.738	0.698	0.83	0.797	1.07	0.608	0.591	0.757	0.807	0.678						0.289
NCI-H1299					1.07	0.993	0.951	1	1.06											
NCI-H1395	0.422	0.451	0.457	0.374						0.775	0.728	0.702	0.75	0.791	0.877	0.859	0.528	0.768	0.671	0.374
NCI-H1563	0.532	0.481	0.429	0.447	0.647	0.843	0.751	0.8	0.661						0.628	0.732	0.6	0.759	0.715	0.462
NCI-H1623	0.588	0.571	0.588	0.555						0.434	0.422	0.404	0.45	0.436						0.591
NCI-H1648										0.536	0.527	0.515	0.47	0.542	0.753	0.786		0.595	1.12	
NCI-H1703					0.334	0.327	0.355	0.186	0.274											
NCI-H1792	0.937	0.876	1.03	0.803	0.985	0.753	0.998	0.883	0.923						0.691	0.76		0.619	0.651	0.556
NCI-H1793	0.458	0.298	0.403	0.409						0.435	0.388		0.362	0.317		0.95		0.833	0.782	
NCI-H1944	0.213	0.214	0.204	0.203						0.254	0.252	0.224	0.242	0.254	0.608	0.703	0.567	0.602	0.606	0.2
NCI-H2170	0.601	0.737	0.558	0.497						0.704	0.622	0.726	0.777	0.704	0.235	0.308	0.256	0.266	0.252	0.526
NCI-H2342	0.328	0.344	0.32	0.307						0.493	0.43	0.442	0.464	0.421	0.682	0.767	0.77	0.8	0.738	0.301
SK-MES-1	0.376	0.467	0.335	0.315						0.862	0.872	0.961	0.862	0.832	0.88	0.833	0.927	0.906	0.917	0.405
SW 900	0.664	0.529	0.7	0.742						0.575	0.675	0.527	0.417	0.531		0.48		0.493	0.487	0.556
